The results in this text go back to patent publication US20070207093A1, “Hydrazone derivatives and uses thereof” (Linquagen Corp., priority 2005, published 2007).

What all share (type): cell-based
The target in one assay is T1, human TRPM5 (Homo sapiens, UniProt Q9NZQ8).
T1 construct: expressed in transfected cells; host or cells: HEK cells, stably transfected
T1 sequence (Q9NZQ8 1-1165): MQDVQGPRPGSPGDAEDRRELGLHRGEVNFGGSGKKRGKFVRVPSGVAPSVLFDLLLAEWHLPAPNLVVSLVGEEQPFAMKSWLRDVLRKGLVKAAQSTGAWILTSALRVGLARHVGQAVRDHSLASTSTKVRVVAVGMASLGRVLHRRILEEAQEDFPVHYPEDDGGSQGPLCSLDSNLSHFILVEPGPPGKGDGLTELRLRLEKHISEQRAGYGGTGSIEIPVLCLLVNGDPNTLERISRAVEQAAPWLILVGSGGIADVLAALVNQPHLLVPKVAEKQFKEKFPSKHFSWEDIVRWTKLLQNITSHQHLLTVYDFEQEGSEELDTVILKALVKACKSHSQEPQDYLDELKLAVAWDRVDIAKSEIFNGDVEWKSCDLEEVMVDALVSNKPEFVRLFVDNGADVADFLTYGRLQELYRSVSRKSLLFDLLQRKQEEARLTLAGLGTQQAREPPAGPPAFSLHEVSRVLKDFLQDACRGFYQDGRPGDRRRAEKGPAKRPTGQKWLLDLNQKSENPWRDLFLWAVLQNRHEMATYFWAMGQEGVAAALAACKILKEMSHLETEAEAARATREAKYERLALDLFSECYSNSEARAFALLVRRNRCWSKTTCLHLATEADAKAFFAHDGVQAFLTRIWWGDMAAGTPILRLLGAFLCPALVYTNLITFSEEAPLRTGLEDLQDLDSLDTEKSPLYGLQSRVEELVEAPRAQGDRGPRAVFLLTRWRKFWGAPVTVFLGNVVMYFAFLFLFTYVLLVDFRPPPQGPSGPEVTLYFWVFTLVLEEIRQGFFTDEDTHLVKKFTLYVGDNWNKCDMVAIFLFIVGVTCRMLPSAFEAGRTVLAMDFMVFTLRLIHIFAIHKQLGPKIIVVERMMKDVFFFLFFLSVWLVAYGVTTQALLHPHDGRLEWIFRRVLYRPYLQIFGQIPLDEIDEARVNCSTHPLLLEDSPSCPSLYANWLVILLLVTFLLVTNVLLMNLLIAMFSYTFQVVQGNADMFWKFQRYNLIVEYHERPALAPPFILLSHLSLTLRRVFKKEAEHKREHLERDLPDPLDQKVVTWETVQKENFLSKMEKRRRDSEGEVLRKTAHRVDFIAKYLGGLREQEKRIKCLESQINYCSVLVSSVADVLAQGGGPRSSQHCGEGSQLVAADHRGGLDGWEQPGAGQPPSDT
Briefly: Whole-cell electrophysiology of TRPM5 current. The following applies: HEK293; HEK cells stably transfected with human TRPM5, pre-treated with 10 μM; current activated by intracellular calcium dialysis (170 nM free calcium); FIG. 2B. How it is done: Standard whole-cell recordings were obtained from HEK cells stably transfected with human TRPM5. Internal solution contained 135 mM CsGlutamate, 10 mM HEPES, 2 mM MgATP, 5 mM CaCl2 and 10 mM EGTA. External solution was HBSS (Gibco) buffered with 20 mM HEPES to pH 7.2. Currents were recorded with Multiclamp 700B amplifier using PClamp software; filered at 1 kHz, sampled at 5 kHz. Holding potential was −80 mV. TRPM5 current was activated by intracellular calcium dialysis (170 nM free calcium) and sampled with 200 ms ramps from −80 to 80 mV at 1 Hz. Current amplitudes were measured at −80 and 80 mV potted versus time.
A general note: Calcium flux is commonly read through the fluorescence of an indicator in the cells.

For assay [1], the system named is GPCR-mediated calcium activation step. Briefly: Calcium counterscreen (calcium sensitive dye, ATP stimulation). As to conditions: Homo sapiens, 10 μM compound, same HEK293 TRPM5 cells, Calcium3 dye, read-out: Calcium Counterscreen (percent inhibition). How it is done: (§1) Two counterscreen assays were run on separate cell plates utilizing the same cells as described above. In the calcium counterscreen, the cells were loaded with a calcium sensitive dye (Calcium3 Dye, Part no. 8090, Molecular Devices Corp.) and stimulated by ATP to check for compounds that block the GPCR-mediated calcium activation step. In the KCl counterscreen, cells are stimulated with 10 mM KCl instead of ATP to check for compounds that inhibit the membrane potential response by virtue of being non-specific ion channel blockers.
(§2) Unless otherwise indicated, the data in the table below were determined using the three assays described above, providing percent inhibition data at 10 μM.
Background: A counterscreen serves to expose hits that act by an unwanted route or on another target.

Assay [2] has as its system membrane potential response (non-specific ion channel block). Description: KCl counterscreen (membrane potential dye, 10 mM KCl stimulation). The following applies: Homo sapiens; 10 μM compound; same HEK293 TRPM5 cells; 10 mM KCl instead of ATP; read-out: KC1 Counterscreen (percent inhibition). How it is done:
as §1, §2

In another assay the target is T2, human TRPM5 ion channel (Homo sapiens, UniProt Q9NZQ8).
T2 construct: expressed in transfected cells
T2 sequence (Q9NZQ8 1-1165): T1 sequence (Q9NZQ8 1-1165)
Description: TRPM5 FLIPR membrane potential screening assay (ATP stimulation). The following applies: 10 μM compound; HEK293 cells stably expressing human TRPM5; 3 μM ATP stimulation; versus negative control wells; read-out: TRPM5 Activity (percent inhibition). On the procedure:
The activity of human TRPM5 ion channel was measured in live cells on a fluorescent imaging plate reader (FLIPR). The basis of the assay (shown in FIG. 1) is the calcium-dependent activation of the ion channel which occurs via by activation of a G-protein coupled receptor (GPCR). GPCR activation by an appropriate agonist causes a transient increase in […] Ca^2+ ion concentration which in turn causes the ion channel to open, letting in Na^+ ions. This influx causes a change in the membrane potential of the cell which can be monitored as a change in the fluorescent signal from voltage-dependent (membrane potential) fluorescent dyes.
For the screening assay, the human TRPM5 gene was cloned, put into HEK293 cells, and a stable, high expression clone was used for screening. Cells were grown in standard media at 37° C. The day before screening, the cells were removed from flasks and added to 384 well clear bottom plates (8K cells in 20 μL/well). On the assay day, 20 μL of membrane potential dye (Part No. R8123, Molecular Devices Corp.) was added to the cells and dye was allowed to be taken up, i.e., load, into the cells for 1 hr at 37° C. […] The assay was started by addition of 10 μL of solution from the compound plate into the cell plate. During this process, continuous fluorescent recordings were made simultaneously for all wells. After addition of the compound solution, the tips were automatically washed and a stimulation solution of 3 μM ATP (an agonist for an endogenous purinurgic GPCR, was added to all wells of the cell plate. The height of the response was calculated and percent inhibition values, versus negative control wells, was calculated for the test samples.
as §2

Molecules are shown by their SMILES.

As a reminder, the inhibition is the change of the read-out against control, counted positive when it falls. For the compound `COc1ccc(/C=N/NC(=O)Cc2cccc3ccccc23)cc1OC` [Example 3, (E)-N′-(3,4-Dimethoxybenzylidene)-2-(naphthalene-1-yl)acetohydrazide], the inhibition at 10 µM on human TRPM5 was greater than 90%; in assay [1], 2%; in assay [2], 6%; at human TRPM5 ion channel, 97%.

In the case of `CCN(CC)c1ccc(/C=N/Nc2nc3ccccc3[nH]2)c(O)c1` [Example 22, (E)-2-((2-(1H-Benzo[d]imidazol-2-yl)hydrazono)methyl)-5-(diethylamino)phenol], the inhibition at 10 µM in assay [1] is -23%; in assay [2], 32%; at human TRPM5 ion channel, 58%.
